# B1: 1024-CFN: intein-split PE with Cas9 residues at 1024 mutated to the Npu intein CFN sequence (protein)
# chain: MKRTADGSEFESPKKKRKVIKIATRKYLGKQNVYDIGVERDHNFALKNGFIASNCFNEIGKATAKYFFYSNIMNFFKTEITLANGEIRKRPLIETNGETGEIVWDKGRDFATVRKVLSMPQVNIVKKTEVQTGGFSKESILPKRNSDKLIARKKDWDPKKYGGFDSPTVAYSVLVVAKVEKGKSKKLKSVKELLGITIMERSSFEKNPIDFLEAKGYKEVKKDLIIKLPKYSLFELENGRKRMLASAGELQKGNELALPSKYVNFLYLASHYEKLKGSPEDNEQKQLFVEQHKHYLDEIIEQISEFSKRVILADANLDKVLSAYNKHRDKPIREQAENIIHLFTLTNLGAPAAFKYFDTTIDRKRYTSTKEVLDATLIHQSITGLYETRIDLSQLGGDSGGSSGGSSGSETPGTSESATPESSGGSSGGSSTLNIEDEYRLHETSKEPDVSLGSTWLSDFPQAWAETGGMGLAVRQAPLIIPLKATSTPVSIKQYPMSQEARLGIKPHIQRLLDQGILVPCQSPWNTPLLPVKKPGTNDYRPVQDLREVNKRVEDIHPTVPNPYNLLSGLPPSHQWYTVLDLKDAFFCLRLHPTSQPLFAFEWRDPEMGISGQLTWTRLPQGFKNSPTLFNEALHRDLADFRIQHPDLILLQYVDDLLLAATSELDCQQGTRALLQTLGNLGYRASAKKAQICQKQVKYLGYLLKEGQRWLTEARKETVMGQPTPKTPRQLREFLGKAGFCRLFIPGFAEMAAPLYPLTKPGTLFNWGPDQQKAYQEIKQALLTAPALGLPDLTKPFELFVDEKQGYAKGVLTQKLGPWRRPVAYLSKKLDPVAAGWPPCLRMVAAIAVLTKDAGKLTMGQPLVILAPHAVEALVKQPPDRWLSNARMTHYQALLLDTDRVQFGPVVALNPATLLPLPEEGLQHNCLDILAEAHGTRPDLTDQPLPDADHTWYTDGSSLLQEGQRKAGAAVTTETEVIWAKALPAGTSAQRAELIALTQALKMAEGKKLNVYTDSRYAFATAHIHGEIYRRRGWLTSEGKEIKNKDEILALLKALFLPKRLSIIHCPGHQKGHSAEARGNRMADQAARKAAITETPDTSTLLIENSSPSGGSKRTADGSEFEPKKKRK
# Key:
# [1] = test system: 5′-Cy5-labeled dsDNA substrates; assay: In vitro TPRT (prime editing) primer extension assay, denaturing urea PAGE; type: biochemical; details: non-nicked substrate, standard gRNA (gRNA_0, lane 3)
# Procedure: All reactions are with M-MLV RT.
# Then, the fluorescently labeled DNA substrate was added along with dNTPs and the RT enzyme. After 1 hour of incubation at 37° C., the reaction products were analyzed by denaturing urea-polyacrylamide gel electrophoresis (PAGE).
# However, the DNA substrates are not pre-nicked in this set of experiments. […] The reaction products were analyzed by denaturing urea-polyacrylamide gel electrophoresis (PAGE).
# Reactions were incubated at 37° C. for 1 hour, then analyzed by denaturing urea PAGE and visualized for Cy5 fluorescence.
# Reactions were allowed to proceed at 37° C. for 1 hour prior to separation by denaturing urea PAGE and visualization by Cy5 fluorescence.
# [2] = test system: different target sites in various cell lines; assay: Efficiency of prime editors with truncated RT; type: cell-based
# Source text: FIG. 75 provides a bar graph comparing the efficiency (i.e., “% of total sequencing reads with the specified edit or indels”) of PE2, PE2-trunc, PE3, and PE3-trunc over different target sites in various cell lines.
# See FIG. 75, which provides a bar graph comparing the efficiency (i.e., “% of total sequencing reads with the specified edit or indels”) of PE2, PE2-trunc, PE3, and PE3-trunc over different target sites in various cell lines.
# HEK cells = assay: Npu intein-split prime editors, plasmid transfection, high-throughput sequencing; type: cell-based; details: HEK cells transfected with plasmids
# Source text: This Example is focused on a PE fusion protein comprising the canonical SpCas9 (SEQ ID NO: 18). The split sites for other Cas9 proteins may be the corresponding same site, or may need to be optimized for each different Cas9 protein. In the instant Example, the prime editor was split between residues 1023 and 1024 of SpCas9 (SEQ ID NO: 18). This is referred to as the “1023/1024” split site.
# Prime editors (PEs) exceed the AAV packaging capacity.
# It was therefore determined whether mutation from the Cas9-native “SEQ” towards the Npu intein “CFN” sequence altered efficiency of prime editing.
# Although associated, unspliced editors may be active, perturbations of the sterics of the prime editor resulting from incomplete splicing during initiation steps may affect editing outcomes.
molecule,measurement,setting,value
Cas9 nickase: Cas9 nickase (SpyCas9 H840A mutant),cleavage of the DNA strand,[1],efficiently cleaves the DNA strand
"PE2-trunc: Cas9 (H840A) fused to a truncated M-MLV reverse transcriptase with D200N, T306K, W313F, T330P; SEQ ID NO: 765",efficiency (% of total sequencing reads with the specified edit or indels),[2],about as efficient as the prime editors comprising the non-truncated RT proteins
B1,prime editing activity compared with full-length PE3,HEK cells,recapitulates full-length PE3 activity

# — patent US12624354B2, “Methods and compositions for prime editing nucleotide sequences” (The Broad Institute, Inc., priority 2019, dated 2026)
